Patent publication US10526327B2, “Histone demethylase inhibitors” (CELGENE QUANTICEL RESEARCH, INC., priority 2013, dated 2020)
pIC50: −log10 of the molar value.

Molecular target: T1, JMJD2C (Homo sapiens, UniProt Q9H3R0)
T1 construct: purchased BPS Bioscience 50105
T1 sequence (Q9H3R0 2-372): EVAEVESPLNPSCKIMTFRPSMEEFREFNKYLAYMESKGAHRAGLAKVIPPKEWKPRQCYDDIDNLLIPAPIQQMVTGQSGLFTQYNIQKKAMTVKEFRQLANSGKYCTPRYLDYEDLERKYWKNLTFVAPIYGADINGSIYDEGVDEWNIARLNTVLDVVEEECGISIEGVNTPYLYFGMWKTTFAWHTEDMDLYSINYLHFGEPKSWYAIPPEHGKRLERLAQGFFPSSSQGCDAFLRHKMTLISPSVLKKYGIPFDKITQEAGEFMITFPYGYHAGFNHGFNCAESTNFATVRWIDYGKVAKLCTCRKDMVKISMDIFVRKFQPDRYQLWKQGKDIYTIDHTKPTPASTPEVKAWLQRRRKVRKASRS
Test: JMJD2C in vitro enzyme inhibition assay (TR-FRET)
Format: biochemical
Description: This assay determines the ability of a test compound to inhibit Jarid1A, Jarid1B, and JMJD2C demethylase activity. Baculovirus expressed Jarid1A (GenBank Accession #NM_001042603, AA1-1090) was purchased from BPS Bioscience (Cat#50110). Baculovirus expressed Jarid1B (GenBank Accession #NM_006618, AA 2-751) was purchased from BPS Bioscience (Cat #50121) or custom made by MolecularThroughput. Baculovirus expressed JMJD2C (GenBank Accession #BC143571, AA 2-372) was purchased from BPS Bioscience (Cat#50105).
The ability of test compounds to inhibit the activity of JMJD2C was determined in 384-well plate format under the following reaction conditions: 0.3 nM JMJD2C, 300 nM H3K9me3-biotin labeled peptide (Anaspec cat #64360), 2 μM alpha-ketoglutaric acid in assay buffer of 50 mM HEPES, pH7.3, 0.005% Brij35, 0.5 mM TCEP, 0.2 mg/ml BSA, 50 μM sodium L-ascorbate, and 2 μM ammonium iron(II) sulfate. Reaction product was determined quantitatively by TR-FRET after the addition of detection reagent Phycolink Streptavidin-allophycocyanin (Prozyme) and Europium-anti-di-methylated histone H3 lysine 9 (H3K9me2) antibody (PerkinElmer) in the presence of 5 mM EDTA in LANCE detection buffer (PerkinElmer) at a final concentration of 50 nM and 1 nM, respectively.
The assay reaction was initiated by the following: 2 μl of the mixture of 900 nM H3K9me3-biotin labeled peptide and 6 μM alpha-ketoglutaric acid with 2 μl of 11-point serial diluted inhibitor in 3% DMSO were added to each well of the plate, followed by the addition of 2 μl of 0.9 nM JMJD2C to initiate the reaction. The reaction mixture was incubated at room temperature for 30 minutes, and terminated by the addition of 6 μl of 5 mM EDTA in LANCE detection buffer containing 100 nM Phycolink Streptavidin-allophycocyanin and 2 nM Europium-anti-H3K9me2 antibody. Plates were read by EnVisionMultilabel Reader in TR-FRET mode (excitation at 320 nm, emission at 615 nm and 665 nm) after 1 hour incubation at room temperature. A ratio was calculated (665/615) for each well and fitted to determine inhibition constant (IC50).

Compound	pIC50
COc1nc(O)c2ccnc(-c3cn(C)cn3)c2n1 [Example 68, 2-methoxy-8-(1-methyl-1H-imidazol-4-yl)pyrido[3,4-d]pyrimidin-4-ol]	6.00 to 7.00
CCOc1nc(O)c2ccnc(-c3cn(C)cn3)c2n1 [Example 69, 2-ethoxy-8-(1-methyl-1H-imidazol-4-yl)pyrido[3,4-d]pyrimidin-4-ol]	6.00 to 7.00
Cn1cnc(-c2nccc3c(O)nc(OCC(F)(F)F)nc23)c1 [Example 70, 8-(1-methyl-1H-imidazol-4-yl)-2-(2,2,2-trifluoroethoxy)pyrido[3,4-d]pyrimidin-4-ol]	6.00 to 7.00
Cn1cnc(-c2nccc3c(O)nc(OCc4ccc(F)cc4)nc23)c1 [Example 71, 2-[(4-fluorobenzyl)oxy]-8-(1-methyl-1H-imidazol-4-yl)pyrido[3,4-d]pyrimidin-4-ol]	6.00 to 7.00
Cn1cnc(-c2nccc3c(O)nc(OCC4CC4)nc23)c1 [Example 72, 2-(cyclopropylmethoxy)-8-(1-methylimidazol-4-yl)pyrido[3,4-d]pyrimidin-4-ol]	6.00 to 7.00
Cn1cnc(-c2nccc3c(O)nc(OCCCC(F)(F)F)nc23)c1 [Example 74, 8-(1-methylimidazol-4-yl)-2-(4,4,4-trifluorobutoxy)pyrido[3,4-d]pyrimidin-4-ol]	6.00 to 7.00
Cn1cnc(-c2nccc3c(O)nc(OCCO)nc23)c1 [Example 75, 2-(2-hydroxyethoxy)-8-(1-methylimidazol-4-yl)pyrido[3,4-d]pyrimidin-4-ol]	6.00 to 7.00
CN(C)CCOc1nc(O)c2ccnc(-c3cn(C)cn3)c2n1 [Example 76, 2-[2-(dimethylamino)ethoxy]-8-(1-methylimidazol-4-yl)pyrido[3,4-d]pyrimidin-4-ol]	6.00 to 7.00
Cn1cnc(-c2nccc3c(O)nc(OCC(F)F)nc23)c1 [Example 77, 2-(2,2-difluoroethoxy)-8-(1-methylimidazol-4-yl)pyrido[3,4-d]pyrimidin-4-ol]	6.00 to 7.00
Cn1cnc(-c2nccc3c(O)nc(OCCC4CC4)nc23)c1 [Example 78, 2-(2-cyclopropylethoxy)-8-(1-methylimidazol-4-yl)pyrido[3,4-d]pyrimidin-4-ol]	6.00 to 7.00
Cn1cnc(-c2nccc3c(O)nc(Oc4cnn(Cc5ccccc5)c4)nc23)c1 [Example 79, 2-(1-benzylpyrazol-4-yl)oxy-8-(1-methylimidazol-4-yl)pyrido[3,4-d]pyrimidin-4-ol]	6.00 to 7.00
CC(C)CCn1cc(Oc2nc(O)c3ccnc(-c4cn(C)cn4)c3n2)cn1 [Example 80, 2-[1-(3-methylbutyl)pyrazol-4-yl]oxy-8-(1-methylimidazol-4-yl)pyrido[3,4-d]pyrimidin-4-ol]	6.00 to 7.00
Cn1cnc(-c2nccc3c(O)nc(Oc4ccc(F)c(F)c4)nc23)c1 [Example 81, 2-(3,4-difluorophenoxy)-8-(1-methylimidazol-4-yl)pyrido[3,4-d]pyrimidin-4-ol]	6.00 to 7.00
COCCOc1ccc(Oc2nc(O)c3ccnc(-c4cn(C)cn4)c3n2)cc1 [Example 82, 2-[4-(2-methoxyethoxy)phenoxy]-8-(1-methylimidazol-4-yl)pyrido[3,4-d]pyrimidin-4-ol]	6.00 to 7.00
Cn1cnc(-c2nccc3c(O)nc(Oc4ccc5cnn(C)c5c4)nc23)c1 [Example 83, 8-(1-methylimidazol-4-yl)-2-(1-methylindazol-6-yl)oxypyrido[3,4-d]pyrimidin-4-ol]	6.00 to 7.00
CCn1ncc2ccc(Oc3nc(O)c4ccnc(-c5cn(C)cn5)c4n3)cc21 [Example 84, 2-(1-ethylindazol-6-yl)oxy-8-(1-methylimidazol-4-yl)pyrido[3,4-d]pyrimidin-4-ol]	6.00 to 7.00
Cc1nn(C)c2cc(Oc3nc(O)c4ccnc(-c5cn(C)cn5)c4n3)ccc12 [Example 85, 2-(1,3-dimethylindazol-6-yl)oxy-8-(1-methylimidazol-4-yl)pyrido[3,4-d]pyrimidin-4-ol]	6.00 to 7.00

Compound	pIC50
Oc1nc(Oc2cnn(Cc3ccc(F)cc3)c2)nc2cnccc12 [Example 86, 2-[1-(4-fluorobenzyl)pyrazol-4-yl]oxypyrido[3,4-d]pyrimidin-4-ol]	≥ 7.00
Oc1nc(Oc2cnn(Cc3ccccc3F)c2)nc2cnccc12 [Example 87, 2-[1-(2-fluorobenzyl)pyrazol-4-yl]oxypyrido[3,4-d]pyrimidin-4-ol]	≥ 7.00
CC(C)(C)OC(=O)N1CCC(n2cc(Oc3nc(O)c4ccncc4n3)cn2)CC1 [Example 88, tert-butyl 4-[4-(4-hydroxypyrido[3,4-d]pyrimidin-2-yl)oxypyrazol-1-yl]piperidine-1-carboxylate]	6.00 to 7.00
Oc1nc(Oc2cnn(C3CCNCC3)c2)nc2cnccc12 [Example 89, 2-(1-piperidin-4-ylpyrazol-4-yl)oxypyrido[3,4-d]pyrimidin-4-ol]	≥ 7.00
CC(=O)N1CCC(n2cc(Oc3nc(O)c4ccncc4n3)cn2)CC1 [Example 90, 1-[4-[4-(4-hydroxypyrido[3,4-d]pyrimidin-2-yl)oxypyrazol-1-yl]piperidin-1-yl]ethanone]	≥ 7.00
C=CC(=O)N1CCC(n2cc(Oc3nc(O)c4ccncc4n3)cn2)CC1 [Example 91, 1-[4-[4-(4-hydroxypyrido[3,4-d]pyrimidin-2-yl)oxypyrazol-1-yl]piperidin-1-yl]prop-2-en-1-one]	6.00 to 7.00
O=C(C1CC1)N1CCC(n2cc(Oc3nc(O)c4ccncc4n3)cn2)CC1 [Example 92, cyclopropyl-[4-[4-(4-hydroxypyrido[3,4-d]pyrimidin-2-yl)oxypyrazol-1-yl]piperidin-1-yl]methanone]	≥ 7.00
O=C(c1ccc(F)cc1)N1CCC(n2cc(Oc3nc(O)c4ccncc4n3)cn2)CC1 [Example 93, (4-fluorophenyl)-[4-[4-(4-hydroxypyrido[3,4-d]pyrimidin-2-yl)oxypyrazol-1-yl]piperidin-1-yl]methanone]	≥ 7.00
O=S(=O)(C1CC1)N1CCC(n2cc(Oc3nc(O)c4ccncc4n3)cn2)CC1 [Example 94, 2-[1-(1-cyclopropylsulfonylpiperidin-4-yl)pyrazol-4-yl]oxypyrido[3,4-d]pyrimidin-4-ol]	≥ 7.00
O=S(=O)(c1ccccc1)N1CCC(n2cc(Oc3nc(O)c4ccncc4n3)cn2)CC1 [Example 95, 2-[1-[1-(benzenesulfonyl)piperidin-4-yl]pyrazol-4-yl]oxypyrido[3,4-d]pyrimidin-4-ol]	≥ 7.00
Oc1nc(Oc2ccnc(N3CCNCC3)c2)nc2cnccc12 [Example 96, 2-(2-piperazin-1-ylpyridin-4-yl)oxypyrido[3,4-d]pyrimidin-4-ol]	6.00 to 7.00
Oc1nc(Oc2ccnc(N3CCOCC3)c2)nc2cnccc12 [Example 97, 2-(2-morpholin-4-ylpyridin-4-yl)oxypyrido[3,4-d]pyrimidin-4-ol]	6.00 to 7.00
Cn1cnc(-c2nccc3c(O)nc(OCC(C)(C)O)nc23)c1 [Example 98, 2-(2-hydroxy-2-methylpropoxy)-8-(1-methylimidazol-4-yl)pyrido[3,4-d]pyrimidin-4-ol]	5.00 to 6.00
CC(c1ccccc1)n1cc(Oc2nc(O)c3ccncc3n2)cn1 (stereo not drawn) [Example 99]	6.00 to 7.00
Cn1cnc(-c2nccc3c(O)nc(Oc4cnn(C5CCOCC5)c4)nc23)c1 [Example 100, 8-(1-methylimidazol-4-yl)-2-[1-(oxan-4-yl)pyrazol-4-yl]oxypyrido[3,4-d]pyrimidin-4-ol]	6.00 to 7.00
Cn1cnc(-c2nccc3c(O)nc(OCc4ccccc4)nc23)c1 [Example 101, 8-(1-methylimidazol-4-yl)-2-phenylmethoxypyrido[3,4-d]pyrimidin-4-ol]	6.00 to 7.00
